Data published in patent publication US20160025704A1, “METHODS FOR IDENTIFYING NEUROPROTECTIVE PKC ACTIVATORS” (priority 2013, published 2016).

Legend:
[1] = tested on: BDNF, NGF, NT-3, and GAP-43 mRNA; experiment: NTF mRNA expression in primary hippocampal neurons treated with Aβ (real time PCR); type: cell-based, rat; settings: co-treated 24 hours or treated 12 hours after Aβ
Procedure: Protocol: Primary hippocampal neurons were treated with control buffer (Untreated), Aβ (1 μM, oligomeric form), or 0.5 nM bryostatin for 24 hours. Some cells were co-treated with Aβ plus 0.5 nM bryostatin (Bryo+Aβ) for 24 hours, or pre-treated with Aβ for 12 hours, washed out, and then treated with bryostatin for additional 12 hours (Aβ+Bryo). Cells were then lysed and total RNA was isolated. Relative expression change of BDNF, NGF, NT-3, and GAP-43 mRNA was quantitatively measured from real time PCR using specific primers against rat BDNF, NGF, NT-3, and GAP-43 mRNA (FIG. 14). A representative gel image is also shown below in FIG. 14 (Mean+SEM, *P<0.05, Aβ compared with untreated; #P<0.05, Bryo+Aβ or Aβ+Bryo compared with Aβ only).
Test A—DCPLA (500 nM): Primary hippocampal neurons were treated with control buffer (Untreated), Aβ (1 μM, oligomer), or 500 nM DCPLA for 24 hours. Some cells were pre-treated with Aβ for 12 hr and then treated with 500 nM DCPLA for 12 hours (Aβ+DCP-LA), or co-treated with Aβ plus 500 nM DCP-LA (DCP-LA+Aβ) for 24 hours. Total RNA was isolated and relative expression change of BDNF, NGF, NT-3, and GAP-43 mRNA was quantitatively measured from real time RT-PCR using specific primers against rat BDNF, NGF, NT-3, and GAP-43 mRNA (FIG. 15). A representative gel image is also shown below in FIG. 15 (Mean+SEM of three independent experiments, *P<0.05, Aβ compared with untreated; #P<0.05, Aβ+Bryo or Bryo+Aβ compared with Aβ only).
Test B—DCPLA-methyl ester (100 nM): Primary hippocampal neurons were treated with control buffer (Untreated), 1 μM Aβ, or 100 nM DCP-LA ME (the methyl ester form of DCP-LA) for 24 hours. Some cells were pre-treated with Aβ for 12 hr and then treated with 100 nM DCP-LA ME for 12 hours (Aβ+DCP-LA ME), or co-treated with Aβ plus […] (DCP-LA ME+Aβ) for 24 hours. Total RNA was isolated and relative expression change of BDNF, NGF, NT-3, and GAP-43 mRNA was quantitatively measured from real time RT-PCR using specific primers against rat BDNF, NGF, NT-3, and GAP-43 mRNA (FIG. 16). […]

[2] = clinical trials, Varterasian et al. 2000; cited from earlier work
[3] = tested on: neurons in the CA1 hippocampal area; experiment: Apoptotic cell death (TUNEL) in hippocampal CA1 area after ischemic (2-VO)/hypoxic event; type: in vivo; settings: 15 μg/m^2 tail vein, 2 doses/week for 10 doses, starting 24 hours after ischemic/hypoxic event; staining 9 day after last dose
Procedure: Protocol: Bryostatin-1 (15 μg/m^2) was administered through a tail vein (2 doses/week, for 10 doses), starting 24 hours after the end of the ischemic (2-VO)/hypoxic event. Staining for apoptotic cell death in the hippocampal CA1 area was performed 9 day after the last bryostatin-1 dose. […] (C) Quantification of TUNEL staining in stratum radiatum (n=3 animals; n=30 confocal images). Con=control; Bry=bryostatin-1; Isch=cerebral ischemia; ***, P<0.001.

[4] = tested on: healthy brown Norway rats; experiment: Learning, memory and mushroom spine synapses in healthy rats, water maze training; type: in vivo; set-up: learning acquisition: dose or concentration left out as unconfirmed
Source text: Protocol: Non-disease, healthy brown Norway rats (at 4-5 months old) were used in this study. […] (Nv=naîve controls; Sw=swim controls; Mz=water maze treatment; and Mz/Br=water maze treatment plus bryostatin treatment).

human neprilysin = experiment: Neprilysin activity in SH+hNEP cells (fluorometric); type: cell-based; settings: 1 nM for 15 min to 3 hours; 0.27, 0.5, 1, or 2 nM for 1 hr (FIG. 32)
Procedure: Protocol: Intact SH+hNEP cells were incubated in the absence or presence of bryostatin (1 nM) for 15 min, 30 min, 1 hour, or 3 hours. Cells were then lysed and neprilysin activity was measured. 50 μg of total lysates were separately incubated with 0.5 mM glutaryl-Ala-Ala-Phe-4-methoxy-2-naphthylamide as a substrate. Further incubation with leucine aminopeptidases released free 4-methoxy-2-naphthylamide that was measured fluorometrically at an emission of 425 nm (Mean+SEM of three independent experiments, *P<0.05; **P<0.01, Bryo compared with untreated condition). Intact SH+hNEP cells were incubated in the absence or presence of bryostatin (Bryo) at 0.27, 0.5, 1, or 2 nM concentration for 1 hr, lysed and then neprilysin activity for each condition was fluorometically measured as shown in (A) (Mean+SEM of three independent experiments, *P<0.05; **P<0.01, Bryo compared with untreated condition). Results are shown below in FIG. 32 (A—fluorometric results of free 4-methoxy-2-naphthylamide measured at different time points; B—fluorometric results of free 4-methoxy-2-naphthylamide measured at different concentrations of bryostatin).
Immunoprecipitates were subjected to Western blot analysis using phospho-Ser/Thr or neprilysin antibody (Mean+SEM of three independent experiments, **P<0.01, Bryo compared with untreated; #P<0.01, Ro+Bryo compared with Bryo). […]

[5] = 10 mg/kg body weight intraperitoneal, 3 doses every other days, during water maze training

Row | SMILES | NTF mRNA expression decreased by Aβ ([1]; 500 nM, Aβ 1 μM oligomer) | NTF mRNA expression decreased by Aβ ([1]; 0.5 nM, Aβ 1 μM oligomeric) | tumor growth promotion [2] | apoptotic cell death in neurons in the CA1 hippocampal area [3] | memory retention [4, 5] | memory-specific induction of mushroom spine synapses [4, 5] | non-mushroom spine density in naïve rats ([4]; Bryostatin alone, no water maze) | learning acquisition ([4]; intraperitoneal, 3 doses every other days, during water maze training) | neprilysin activity (human neprilysin)
1 | CCCCCC1CC1CC1CC1CCCCCCCC(=O)O (stereo not drawn) [DCPLA, 8-[2-(2-pentylcyclopropyl)methyl]-cyclopropaneoctanoic acid] | recovers NTF mRNA expression decreased by Aβ |  |  |  |  |  |  |  | 
2 | CCC/C=C/C=C/C(=O)O[C@H]1/C(=C/C(=O)OC)C[C@H]2C[C@H]([C@@H](C)O)OC(=O)C[C@H](O)C[C@@H]3C[C@H](OC(C)=O)C(C)(C)[C@](O)(C[C@@H]4C/C(=C/C(=O)OC)C[C@H](/C=C/C(C)(C)[C@]1(O)O2)O4)O3 [Bryostatin, bryostatin-1] |  | recovers NTF mRNA expression decreased by Aβ | does not promote tumor growth | prevents apoptotic cell death | promoted | promotes memory-specific induction of mushroom spine synapses | increased non-mushroom spine density | promoted learning acquisition | increases neprilysin activity
